{
  "source": "paper PMC3222680",
  "about": "(PLoS ONE, 2011)",
  "format_in_all_cases": "cell-based",
  "key": {"[1]": {"biological_target": "T1, αV25′A β-αWT GlyR (Homo sapiens, UniProt P23415+P48167, V305A)", "T1 construct": "The α R218-Q219 and β R242-Q243 are also the joining sites for chimeras constructed between the ECD and TMD; expressed in transfected cells; host or cells: HEK293 (ATCC)", "T1 sequence (P23415 29-449 isoform P23415-2 V305A)": "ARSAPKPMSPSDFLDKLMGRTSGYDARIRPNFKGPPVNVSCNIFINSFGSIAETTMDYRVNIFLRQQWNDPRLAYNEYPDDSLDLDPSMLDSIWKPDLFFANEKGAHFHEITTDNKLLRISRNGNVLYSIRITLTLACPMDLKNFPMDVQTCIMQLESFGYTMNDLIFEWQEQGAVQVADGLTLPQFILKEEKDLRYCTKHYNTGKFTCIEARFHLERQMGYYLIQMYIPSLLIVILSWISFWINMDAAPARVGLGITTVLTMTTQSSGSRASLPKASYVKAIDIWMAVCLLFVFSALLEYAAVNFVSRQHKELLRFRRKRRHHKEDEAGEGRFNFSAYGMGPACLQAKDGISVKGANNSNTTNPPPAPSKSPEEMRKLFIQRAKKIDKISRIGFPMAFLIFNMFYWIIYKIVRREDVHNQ", "T1 sequence (P48167+P23415 with tags, fused parts or gaps P48167:V266M/P48167:F268Y/P48167:M270L/P48167:M271I/P48167:G272Q/P48167:V273M/P48167:A275I/P48167:T277S/P48167:V282I/P48167:L286I/P48167:P292M/P48167:S295A/P48167:A296P/P48167:P300G)": "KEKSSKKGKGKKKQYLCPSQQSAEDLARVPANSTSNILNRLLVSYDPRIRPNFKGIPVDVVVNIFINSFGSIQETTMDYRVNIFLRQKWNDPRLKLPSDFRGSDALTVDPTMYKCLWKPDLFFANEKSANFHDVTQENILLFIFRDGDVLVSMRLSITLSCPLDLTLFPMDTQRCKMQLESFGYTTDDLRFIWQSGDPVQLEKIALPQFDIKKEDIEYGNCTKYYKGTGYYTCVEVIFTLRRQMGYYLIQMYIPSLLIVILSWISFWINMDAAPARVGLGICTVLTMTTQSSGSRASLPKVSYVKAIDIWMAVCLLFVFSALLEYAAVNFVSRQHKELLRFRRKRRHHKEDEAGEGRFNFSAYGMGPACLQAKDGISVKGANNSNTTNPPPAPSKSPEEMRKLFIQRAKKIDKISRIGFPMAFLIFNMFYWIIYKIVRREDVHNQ", "method": "(§1) The human GlyR α1 and β subunit cDNAs were subcloned into the pcDNA3.1zeo+ (Invitrogen) or pGEMHE [44] plasmid vectors for expression in HEK293 cells or Xenopus oocytes, respectively. Site-directed mutagenesis and chimera construction were performed using the QuickChange (Stratagene, La Jolla, CA, USA) mutagenesis and multiple-template-based sequential PCR protocols, respectively.\n(§2) For the β-α chimeras used for determining the effect of hyperekplexia-mimicking mutations on α1 β GlyR channel function, the Thr at the M2 6′ position was replaced by a Cys. […] Through such a modification, picrotoxin resistance was used to distinguish the heteromeric α1 β-α GlyR from the homomeric α1 GlyR when the α1 and β-α subunits were co-expressed.\n(§3) The effects of the hyperekplexia-mimicking mutations, K24′A, V25′A and Y27′A, were examined on GlyRs expressed in HEK293 cells (ATCC). Details of the HEK293 cell culture, GlyR expression and electrophysiological recording of the HEK293 cells are described elsewhere. Briefly, HEK293 cells were maintained in DMEM supplemented with 10% fetal bovine serum. Cells were transfected using a calcium phosphate precipitation protocol. When co-transfecting the α1 together with the β or any other chimera subunits, their respective cDNAs were combined in a ratio of 1∶10. In addition, the pEGFP-N1 (Clontech) was co-transfected to facilitate identifying the transfected cells. […] Cells were treated with external Ringer's solution and internal CsCl solution [30]. Cells were voltage-clamped at −40 mV. When the heteromeric GlyRs were expressed, the picrotoxin sensitivity was tested to confirm that the majority of receptors are heteromers, [30].\n(§4) Results are expressed as mean±standard error of the mean of three or more independent experiments. […] Statistical significance was determined using the Student's t-test."}, "[2]": {"biological_target": "T2, αWT β-αWT GlyR (Homo sapiens, UniProt P23415+P48167, A275I/A296P/F268Y/G272Q/L286I/M270L/M271I/P292M/P300G/S295A/T277S/V266M/V273M/V282I)", "T2 construct": "The α R218-Q219 and β R242-Q243 are also the joining sites for chimeras constructed between the ECD and TMD; expressed in transfected cells; host or cells: HEK293 (ATCC)", "T2 sequence (P23415 29-449 isoform P23415-2)": "T1 sequence (P23415 29-449 isoform P23415-2 V305A) with A277V", "T2 sequence (P48167+P23415 with tags, fused parts or gaps P48167:V266M/P48167:F268Y/P48167:M270L/P48167:M271I/P48167:G272Q/P48167:V273M/P48167:A275I/P48167:T277S/P48167:V282I/P48167:L286I/P48167:P292M/P48167:S295A/P48167:A296P/P48167:P300G)": "T1 sequence (P48167+P23415 with tags, fused parts or gaps P48167:V266M/P48167:F268Y/P48167:M270L/P48167:M271I/P48167:G272Q/P48167:V273M/P48167:A275I/P48167:T277S/P48167:V282I/P48167:L286I/P48167:P292M/P48167:S295A/P48167:A296P/P48167:P300G)", "method": "as §1, §2, §3, §4"}, "[3]": {"biological_target": "T3, αK24′A β-αWT GlyR (Homo sapiens, UniProt P23415+P48167, K304A)", "T3 construct": "The α R218-Q219 and β R242-Q243 are also the joining sites for chimeras constructed between the ECD and TMD; expressed in transfected cells; host or cells: HEK293 (ATCC)", "T3 sequence (P23415 29-449 isoform P23415-2 K304A)": "T1 sequence (P23415 29-449 isoform P23415-2 V305A) with K276A, A277V", "T3 sequence (P48167+P23415 with tags, fused parts or gaps P48167:V266M/P48167:F268Y/P48167:M270L/P48167:M271I/P48167:G272Q/P48167:V273M/P48167:A275I/P48167:T277S/P48167:V282I/P48167:L286I/P48167:P292M/P48167:S295A/P48167:A296P/P48167:P300G)": "T1 sequence (P48167+P23415 with tags, fused parts or gaps P48167:V266M/P48167:F268Y/P48167:M270L/P48167:M271I/P48167:G272Q/P48167:V273M/P48167:A275I/P48167:T277S/P48167:V282I/P48167:L286I/P48167:P292M/P48167:S295A/P48167:A296P/P48167:P300G)", "method": "as §1, §2, §3, §4"}, "[4]": {"conditions": "αV25′A β-αWT, HEK293, with glycine at EC50 of α1 homomer"}, "[5]": {"conditions": "αWT β-αWT, HEK293, with glycine at EC50 of α1 homomer"}, "[6]": {"conditions": "αK24′A β-αWT, HEK293, with glycine at EC50 of α1 homomer"}},
  "note": "Changes are numbered by the printed parent chain.",
  "data": [
    {"molecule": "NCC(=O)O", "note": "[glycine]", "values": [
      {"measurement": "Imax", "setting": "[1]", "result": "8.9±1.5", "unit": "nA"},
      {"measurement": "nH", "setting": "[1]", "result": "1.7±0.3"},
      {"measurement": "Imax", "setting": "[2]", "result": "8.0±2.3", "unit": "nA"},
      {"measurement": "nH", "setting": "[2]", "result": "2.4±0.4"},
      {"measurement": "Imax", "setting": "[3]", "result": "8.9±1.9", "unit": "nA"},
      {"measurement": "nH", "setting": "[3]", "result": "2.0±0.3"}
    ]},
    {"molecule": "picrotoxin [PTX]", "values": [
      {"measurement": "10uM PTX inhibition (%)", "setting": "[1]; [4]", "result": "12.0±2.5", "unit": "%"},
      {"measurement": "100uM PTX inhibition (%)", "setting": "[1]; [4]", "result": "37±6", "unit": "%"},
      {"measurement": "10uM PTX inhibition (%)", "setting": "[2]; [5]", "result": "8.5±1.9", "unit": "%"},
      {"measurement": "100uM PTX inhibition (%)", "setting": "[2]; [5]", "result": "26±2", "unit": "%"},
      {"measurement": "10uM PTX inhibition (%)", "setting": "[3]; [6]", "result": "10.0±2.2", "unit": "%"},
      {"measurement": "100uM PTX inhibition (%)", "setting": "[3]; [6]", "result": "23±4", "unit": "%"}
    ]}
  ]
}
